Reference: patent publication EP0211584A1, “Antihypertensive agents” (AMERICAN HOME PRODUCTS CORPORATION, priority 1985, dated 1987)

Experiments:
[1] = tested on: arterial actin-myosin interactions; assay: Inhibition of superprecipitation (antagonism of actin-myosin interaction), Silver et al.; format: biochemical; conditions: six minute time-point
Experimental: . The data reported herein was obtained at a six minute time-point rather than the 1.5, 5 and 12 minute time points indicated in the superprecipita- tion assay of the Silver et al paper.
(§1) The following examples illustrate the preparation of a representative number of compounds of this invention. After each example, the Ca+2 antagonist activity of the compound is presented in terms of percent relaxation of aortic tissue (P.R.) at 10-^5M concentration. […] Inhibition of super- precipitation (Antag. of Actin-Myosin interaction) is expressed as percent inhibition (mean ± standard error of the mean for at least 3 separate experiments) at a compound concentration. In the same manner, inhibition of myosin light chain phosphorylation (Antag. of MLCP) is expressed as a percent inhibition at a compound concentration. Similarly, the antihypertensive activity is reported in terms of millimetres mercury (mmHg) systolic blood pressure (B.P.) reduction at the stated time post 50 mg/kg oral dosing or other dosing as indicated.

[2] = tested on: spontaneously hypertensive rats; assay: Hypotensive effect: systolic blood pressure of spontaneously hypertensive rats; format: in vivo; conditions: mmHg per method
Experimental: The hypotensive in vivo effect of the compounds of this invention was determined by measuring changes in the systolic blood pressure of spontaneously hypertensive rats with a Decker Caudal Plethysmograph. The compound being tested was administered to a group of 4 rats and their systolic pressure was determined prior to and at 1.5 and 4 hours after compound administration. Initial testing was done by oral administration of the compound. Results (mmHg) are expressed as decreases in systolic blood pressure.
as §1

[3] = target: Ca^+2-calmodulin dependent myosin light chain phosphorylation (Bos taurus, UniProt Q28824); assay: Inhibition of myosin light chain phosphorylation (MLCP), Silver et al.; format: biochemical; conditions: read-out: Antag. of MLCP (percent inhibition of myosin light chain phosphorylation)
Experimental: The data reported herein was obtained at a six minute time-point rather than the 1.5, 5 and 12 minute time points indicated in the superprecipita- tion assay of the Silver et al paper.
as §1

[4] = tested on: rabbit aortic smooth muscle; assay: Ca+2 antagonism: relaxation of KCl-depolarized rabbit aortic smooth muscle strips; conditions: Oryctolagus cuniculus, 20 min, compound 1 x 10^-5M; 100mM KCl contraction; 20 minutes after addition; mean of two experiments; read-out: P.R. (percent relaxation of aortic tissue)
Experimental: The composition of PSS was as follows (mM): NaCl 112,KCI 5, NaHCO3 25 KH2PO4 1, MgSO4 1.2, CaCl2 2.5, dextrose 10. The lower end of each tissue strip was attached to a fixed post and the upper end to a Statham UC-4 transducer. Changes in force development were recorded on a Beckman Dynograph Polygraphic Recorder.
Following equilibration, the muscles were contracted in a depolarizing solution of PSS in which 100mM KCI was substituted for an equimolar concentration of NaCI. Following attainment of steady- state isometric force (20 min.), the test compound was added to afford a final concentration of 1 x 10^-5M. The inhibitory effect, expressed as percent relaxation, was determined from the mean of two experiments twenty minutes after the addition of the compound being tested.
as §1

[5] = tested on: isolated paced intact rabbit atria; assay: Cardiac depressant (negative inotropic) effect in isolated paced rabbit atria; conditions: Oryctolagus cuniculus; rabbit atria paced at 3Hz, 30°C, cumulative dosing; read-out: IC25 (concentration which produces 25% inhibition of isometric force)
Experimental: The potential for detrimental cardiac depressant (negative inotropic) effects of the compounds of this invention was assessed in isolated paced intact rabbit atria. […] Muscles (N=5-9/compound) were stimulated at a frequency of 3Hz with a WPI stimulator for a 60 minute equilibration period. Changes in isometric force were recorded as described for the aortic smooth muscle experiments, supra. […]

SMILES	Antag. of Actin-Myosin (percent inhibition of superprecipitation) ([1]; 25µM)	Antag. of Actin-Myosin (percent inhibition of superprecipitation) ([1]; 50µM)	Antag. of Actin-Myosin (percent inhibition of superprecipitation) ([1]; 100µM)	B.P. (systolic blood pressure reduction) ([2]; dose 10mg/kg oral, at 1.5 hours)	B.P. (systolic blood pressure reduction) ([2]; dose 10mg/kg oral, at 4 hours)	inhibition at 25 µM [3]	inhibition at 50 µM [3]	inhibition at 100 µM [3]	inhibition at 10 µM [4]	IC25 [5]	B.P. (systolic blood pressure reduction) ([2]; dose 50mg/kg oral, at 1.5 hours)	B.P. (systolic blood pressure reduction) ([2]; dose 50mg/kg oral, at 4 hours)	B.P. (systolic blood pressure reduction) ([2]; dose 25mg/kg oral, at 4 hours)	Antag. of Actin-Myosin (percent inhibition of superprecipitation) ([1]; 10µM)	B.P. (systolic blood pressure reduction) ([2]; dose 5mg/kg oral, at 1.5 hours)	B.P. (systolic blood pressure reduction) ([2]; dose 5mg/kg oral, at 4 hours)	B.P. (systolic blood pressure reduction) ([2]; dose 25mg/kg oral, at 1.5 hours)	inhibition at 10 µM ([3]; 10µM)
CC1=C(C(=O)OCCc2ccccc2)C(c2c(F)c(F)c(F)c(F)c2F)C2=C(CNCC2=O)N1 (centres unmarked) [Example 18, 1,4,5,6,7,8-Hexahydro-2-methyl-5-oxo-4-(pentafluorophenyl)-1,7-naphthyridine-3-carboxylic acid 2-phenylethyl ester]	42%	65%	78±2%	-27 mm	-24 mm	35%	64%	77 ± 3%	48%	1000 nM								
CC1=C(C(=O)OCCOc2ccccc2)C(c2cccc(Cl)c2Cl)C2=C(CNCC2=O)N1 (centres unmarked) [Example 19, 4-(2,3-Dichlorophenyl)-1,4,5,6,7,8-hexahydro-2-methyl-5-oxo-1,7-naphthyridine-3-carboxylic acid 2-phenoxyethylester]			71%					69%	62%	2500 nM	-50 mm	-73 mm						
CC1=C(C(=O)OCCCCOc2ccccc2)C(c2c(F)c(F)c(F)c(F)c2F)C2=C(CNCC2=O)N1 (centres unmarked) [Example 21, 1,4,5,6,7,8-Hexahydro-2-methyl-5-oxo-4-(pentafluorophenyl)-1,7-naphthyridine-3-carboxylic acid 4-phenoxvbutvl ester]			80%					77%	61%	1000 nM			-49 mm					
CC1=C(C(=O)OCCOc2cccc(Cl)c2Cl)C(c2c(F)ccc(Cl)c2Cl)C2=C(CNCC2=O)N1 (centres unmarked) [Example 25, 4-(2,3-dichloro-6-fluorophenyl)-1,4,5,6,7,8-hexahydro-2-methyl-5-oxo-1,7-naphthyridine-3-carboxylic acid 2-(2,3-dichlorophenoxy)ethyl ester]	55±2.5%	67±5%	73±2.4%			48 ± 3%	60 ± 4%	67 ± 2.3%	59%	700 nM			-70 mm	34±7%	-18 mm	-40 mm	-74 mm	32 ± 8%
